“Also recorded” adds a separate entry of the source. Where a name gives a salt, the structure may show the parent alone.
Assays:
rat tail [1] = assay: Detergent-like effects at tail vein injection site in rats, repeated daily injection for 14 days (compound in Emulsion A); format: in vivo; settings: for Sloughing of tissue, incidence: mild sloughing in various areas (Compound A) / small dots at injection sites (Compound B); for Ischemia, incidence: by/at 14 days; for Average gain in body weight: over 14 days; for Edema, incidence: tail vein, by/at day 14; for Edema, day of onset: majority of rats; for Edema, day of onset in single late rat: one rat; for Overall damage to the rat tail / negative effects: compared with other compound or other vehicles
Description: A commercial 10% intravenous fat emulsion having 5% safflower oil and 5% soybean oil, USP, i.e. "Liposyn II 10%" described above, hereinafter referred to as Emulsion A, is employed.
The test compound is suspended or dissolved in Emulsion A at a concentration of 28 mg/ml. Probe sonification is employed to make a homogenous drug suspension or solution.
Rats are injected with 0.1 ml/100 g body weight. Control animals are injected with Emulsion A alone at the same volume as drug treated rats.
Each rat is placed in a plastic restraining tube, leaving its tail exposed A warm water soaked gauze pad is placed on the tail for approximately 10 seconds to help dilate the tail vein. A 25 gauge needle attached to a 1 cc tuberculine syringe is used to administer drug/control to the rat. To assure proper administration of doses, a negative pressure is achieved by drawing back slowly on the plunger of the syringe. A flashback of blood into the hub of the needle indicates proper placement of the needle, and drug/control is then administered slowly to the rat. After administration of dose, needle is removed and pressure with a clean gauze pad applied for approximately 10 seconds to keep fluid from flowing out of injection site. The rat is returned to its cage and procedure repeated for each animal.
Body weight and visual observations for detergent-like effects are recorded each day and at the end of the 14 day period; particularly for edema, ischemia and necrosis.
Tests were run to observe detergent-like effects on laboratory rats using as active ingredient either 3-[2-[octadecylaminocarbonyloxymethyl-tetrahydrofuran-2-ylmethoxy)-hydroxy-phosphinyloxy]-ethane]-thiazolium hydroxide inner salt-4-oxide (as Compound A) or cis-1-(2-[hydroxy[[tetrahydro-5-[(octadecylaminocarbonyl)oxy]methyl]furan- 2-yl]methoxyphosphinyloxy]ethyl)-quinolinium hydroxide, inner salt-4-oxide (as Compound B). Each of Compounds A and B was administered to a group of 5 rats.
Each of the two compounds were tested at 28 mg/kg suspended in the 10% intravenous fat emulsion. Rats were injected once a day for 14 consecutive days and monitored for the aforementioned signs of tail morbidity.

rat tail [2] = assay: Previous tests: injection of standard water-based mixtures in rats' tails; format: in vivo; settings: for Test halted because of detergent-like effects around the injection site: standard water-based mixtures, 25 mg/kg and over; for Reduction of detergent-like effects by adjustment of pH, or inclusion of buffers or serum albumin: water-based mixtures
[3] = 28 mg/kg once daily in Emulsion A, 14 days
[4] = 28 mg/kg once daily in Emulsion A

SMILES	Edema, severity (rat tail [1]; [3])	Ischemia, severity (rat tail [1]; [3])	Necrosis, incidence (rat tail [1]; [3])	Necrosis, severity / lesion size (rat tail [1]; [3])	Slightly larger area of sloughing, incidence (rat tail [1]; [3])	Sloughing of tissue, incidence (rat tail [1]; [3])	Ischemia, incidence (rat tail [1]; [4])	Average gain in body weight (rat tail [1]; [4]) [%]	Edema, incidence (rat tail [1]; [4])	Edema, day of onset (rat tail [1]; [4]) [days]	Edema, day of onset in single late rat (rat tail [1]; [4]) [days]	Period for which tests could be run (rat tail [1]; in Emulsion A) [days]	Overall damage to the rat tail / negative effects (rat tail [1]; in Emulsion A, 14 days)	Test halted because of detergent-like effects around the injection site (rat tail [2])	Reduction of detergent-like effects by adjustment of pH, or inclusion of buffers or serum albumin (rat tail [2])	Animals having necrotic tissue (rat tail [1]; in Emulsion A, 14 days) [%]	Animals with sloughing of necrotic tissue (rat tail [1]; in Emulsion A, 14 days) [%]
CCCCCCCCCCCCCCCCCCNC(=O)OC[C@H]1CC[C@@H](COP(=O)([O-])OCC[n+]2cccc3ccccc32)O1 (relative stereo) [Compound B, cis-1-(2-[hydroxy[[tetrahydro-5-[(octadecylaminocarbonyl)oxy]methyl]furan-2-yl]methoxyphosphinyloxy]ethyl)-quinolinium hydroxide, inner salt-4-oxide]	mild edema	small areas of ischemia; also recorded: mild edema and ischemia	5/5	small areas of ischemia and necrosis; also recorded: very small areas; also recorded: necrotic lesions being much smaller	1/5	2/5	5/5	29.6	5/5	~4	10	14	least amount of damage to the rat tail; also recorded: visibly better	forced to halt after only a few days	had not proven satisfactory		
CCCCCCCCCCCCCCCCCCNC(=O)OCC1(COP(=O)([O-])OCC[n+]2ccsc2)CCCO1 (stereo not drawn) [Compound A]	moderate edema	moderate edema and ischemia	All rats had mottled necrotic areas			3/4	All rats displayed ischemia of entire tail	24	All rats showed some amount of edema	2 to 4	13	14	greatly reduced the negative effects	forced to halt after only a few days	had not proven satisfactory	100	75

— patent US5010067A, “Triglyceride-water emulsion pharmaceutical vehicles” (Sandoz Pharmaceuticals Corp., priority 1988, dated 1991)
